This is an account of results in patent US20260174769A1, “MACROCYCLIC COMPOUNDS AND METHODS OF USE” (AMGEN INC., priority 2022, published 2026).

Assay [1] has as its target His-tagged KRAS G12D protein (Homo sapiens, UniProt P01116, G12D). Description: KRAS G12D TR-FRET Assay. The format is binding. In short, it runs like this:
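GDP-loaded His-KRAS G12D (20 nM in HEPES pH 7.4, MgCl2, NaCl, BSA, Tween-20, 10 μM GDP) preincubated with compound 30 min at room temperature, then 20 nM biotinylated KRPep-2d peptide added for 1 h. TR-FRET detection used Eu anti-His and streptavidin-d2, read after 1 h.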
(In general: TR-FRET usually uses a lanthanide donor and a delayed reading to cut background.)

Assay [2] relates to Phosphorylation of ERK1/2 in AsPC-1 cells. Description: Phospho-ERK1/2 MSD Assay. The format is cell-based, human. The following applies: read-out: 2 h p-ERK (AsPC-1 cells), IC50. Here is the method:
Sixteen hours prior to compound treatment, AsPC-1 cells were seeded in 96-well cell culture plates at a density of 25,000 cells/well and incubated at 37° C., 5% CO2. A compound dose-response titration was diluted in growth media, added to appropriate wells of a cell culture plate, and then incubated at 37° C., 5% CO2 for 2 hours. […] Phosphorylation of ERK1/2 in compound-treated lysates was assayed using Phospho-ERK 1/2 Whole Cell Lysate kits (Meso Scale Discovery K151DWD) according to the manufacturer's protocol. Assay plates were read on a Meso Scale Discovery Sector Imager 6000, and data were analyzed using a 4-parameter logistic model to calculate IC50 values.

For assay [3], the target named is GDP-bound KRAS protein (aa 1-169), containing both G12D and C118A amino acid substitutions (Homo sapiens, UniProt P01116, C118A/G12D). Description: KRAS G12D Coupled Nucleotide Exchange Assay. The format is biochemical. Here is the method: KRAS G12D Coupled Nucleotide Exchange Assay
The assay plates were then read on a PerkinElmer En Vision Multilabel Reader, using AlphaScreen® technology, and data were analyzed using a 4-parameter logistic model to calculate IC50 values.

The test system of the next assay is AsPC-1 cells. In words: AsPC-1 CTG Assay (CellTiter-Glo cell viability, 72 h). The format is cell-based, human. Conditions: Homo sapiens, ASPC1, 72 h, AsPC-1 cells, 72 h, read-out: G12D/C/V Cell Proliferation CTG (72 h) AsPC-1. As for the experimental part: AsPC-1 and SW620 CTG Assay Protocols
Serially-diluted compound or DMSO was added to the cells, and plates were incubated at 37° C., 5% CO2 for 72 h. Cell viability was measured using a CellTiter-Glo® Luminescent Cell Viability Assay kit (Promega) according to the manufacturer's protocol. The luminescence signal of treated samples was normalized to DMSO control, and data were analyzed using a 4-parameter logistic model to calculate IC50 values.
Background: ATP-based viability assays read luminescence as a measure of living cells.

Where [4] appears, read: Homo sapiens, ASPC1, 2 h, AsPC-1 cells, 2 h compound treatment.
The mark [5] stands for this setting: 2 hours compound pre-incubation, SOS-mediated nucleotide exchange.
Setting [6] is: read-out: KRAS G12D Binding IC50.
The mark [7] stands for this setting: TR-FRET, read-out: KRAS G12D Binding IC50.
[8] abbreviates: Homo sapiens, ASPC1, 2 h, AsPC-1 cells, 2 h.

Structures can show the parent of a compound that is named as a salt. Where two headings read alike, the source gives them in different places.

Regarding `O=C1CCCCc2c(Cl)cc3[nH]ncc3c2-c2ncc3c(nc(OC[C@@]45CCCN4C[C@H](F)C5)nc3c2F)N2CCC3CCN1[C@H]3C2` (mixture of isomers) [Example 60], the IC50 in assay [1] (TR-FRET binding) stood at 13 nM; in assay [2] (setting [4]), 12 nM; in assay [3] (setting [5]), 6 nM.
On to `O=C1CCCc2c(Cl)cc3[nH]ncc3c2-c2ncc3c(nc(OC[C@@]45CCCN4C[C@H](F)C5)nc3c2F)N2CCCC(CC1)C2` (mixture of isomers) [Example 236], for which the IC50 came to 55 nM in assay [1] (TR-FRET binding), 950 nM in assay [2] (setting [4]) and 19 nM in assay [3] (setting [5]).
Regarding `O[C@@H]1C[C@H]2COCCCCc3c(Cl)cc4[nH]ncc4c3-c3ncc4c(nc(OC[C@@]56CCCN5C[C@H](F)C6)nc4c3F)N(C1)C2` (mixture of isomers) [Example 408, 2,2,2-trifluoroacetate salt], the values for the IC50 in assay [1] (setting [6]), in assay [2] and in assay [3] were 24 nM, 52.4 nM and 18 nM, respectively.
For the molecule `O[C@H]1C[C@@H]2CN(C1)c1nc(OC[C@@]34CCCN3C[C@H](F)C4)nc3c(F)c(ncc13)-c1c(c(Cl)cc3[nH]ncc13)CCCc1nc2no1` (racemic) [Example 377, (rac-18R,20S)-9-chloro-31-fluoro-25-(((2R,7a.S)-2-fluorotetrahydro-1H-pyrrolo[1,2-a]pyrrol-7a(5H)-yl)methoxy)-15-oxa-5,6,16,22,24,26,30,33-octaazaheptacyclo[25.3.1.1~14,17~.1~18,22~.0~2,10~0~3.7~.0~23,28~]tritriaconta-1(31),2,4,7,9,14(33),16,23,25,27,29-undecaen-20-ol], the IC50 in assay [1] (setting [7]) was determined as 5 nM; with AsPC-1 cells (first value of the cell), 125 nM; in assay [2] (setting [8]) it was 9.9 nM.
Consider `CC12COCCN(C1)c1nc(OC[C@@]34CCCN3C[C@H](F)C4)nc3cc(nnc13)-c1c(c(Cl)cc3[nH]ncc13)CCCOC(=O)O2` (single isomer, unassigned) [Example 363], for which the IC50 in assay [1] (TR-FRET binding) was 20200 nM; in assay [3] (setting [5]), 5630 nM.
As for `Cc1cc2[nH]ncc2c2c1CCCCC(=O)O[C@@H]1CCCN(C1)c1nc(OC[C@@]34CCCN3C[C@H](F)C4)nc3c(F)c-2ncc13` [Example 31, (17R)-30-Fluoro-24-(((2R,7aS)-2-fluorotetrahydro-1H-pyrrolo[1,2-a]pyrrol-7a(5H)-yl)methoxy)-9-methyl-16-oxa-5,6,21,23,25,29-hexaazahexacyclo[24.3.1.1˜17,21˜.0˜2,10˜.0˜3,7˜.0˜22,27˜]hentriaconta-1(30),2,4,7,9,22,24,26,28-nonaen-15-one bis(2,2,2-trifluoroacetate)], the IC50 was 7 nM in assay [1] (setting [6]) and 5 nM in assay [3].
For `Cc1cc2[nH]ncc2c2c1CCCOC(=O)CC1CCCN(C1)c1nc(OC[C@@]34CCCN3C[C@H](F)C4)nc3c(F)c-2ncc13` (stereo partly drawn) [Example 39], the IC50 was 191 nM in the assay on AsPC-1 cells (first value of cell) and 16 nM in assay [2] (setting [4]).
With `C[C@@]12CCCN(C1)c1nc(OC[C@@]34CCCN3C[C@H](F)C4)nc3c(F)c(ncc13)-c1cc(O)cc3ccc(F)c(c13)CCCC(=O)O2` [Example 43, (15R)-22,31-Difluoro-8-(((2R,7aS)-2-fluorotetrahydro-1H-pyrrolo[1,2-a]pyrrol-7a(5H)-yl)methoxy)-27-hydroxy-15-methyl-16-oxa-3,7,9,11-tetraazahexacyclo[19.7.1.1˜2,6˜.1˜11,15˜.0˜5,10˜.0˜25,29˜]hentriaconta-1(28),2(31),3,5,7,9,21,23,25(29),26-decaen-17-one bis(2,2,2-trifluoroacetate)], the IC50 in assay [1] (TR-FRET binding) stood at 4 nM; with AsPC-1 cells (first value of cell), 92 nM; in assay [2] (setting [4]), 13 nM; in assay [3] (setting [5]) it was 2 nM.
On to `CC1COC(=O)C[C@@H]2CCCN(C2)c2nc(OC[C@@]34CCCN3C[C@H](F)C4)nc3c(F)c(ncc23)-c2c(c(Cl)cc3[nH]ncc23)C1` (stereo partly drawn) [Example 91], for which the IC50 in assay [1] (TR-FRET binding) stood at 4 nM; in the assay with AsPC-1 cells (first value of cell) it was 280 nM; in assay [2] (setting [4]) it was 27 nM; in assay [3] (setting [5]), 2 nM.
In the case of `O=C1OCCCc2c(Cl)cc3[nH]ncc3c2-c2ncc3c(nc(OC[C@H]4CC[C@@H]5COCCN54)nc3c2F)N2CCOC[C@H](C2)O1` [Example 185, (26S)-18-chloro-32-fluoro-4-((6R,8aR)-hexahydro-1H-pyrrolo[2,1-c][1,4]oxazin-6-ylmethoxy)-23,25,28-trioxa-1,3,5,9,14,15-hexaazahexacyclo[24.4.1.1~6,10~.0~2,7~.0~11,19~.0~12,16~]dotriaconta-2,4,6,8,10(32),11,13,16,18-nonaen-24-one], the results for the IC50 in assay [1] (TR-FRET binding) and in assay [3] (setting [5]) were 6 nM and 5 nM, respectively.
For the molecule `O=C1OCCCc2c(Cl)cccc2-c2ncc3c(nc(OC[C@@]45CCCN4C[C@H](F)C5)nc3c2F)N2CCOC[C@H](C2)O1` [Example 186, (23S)-15-chloro-29-fluoro-4-(((2R,7aS)-2-fluorotetrahydro-1H-pyrrolo[1,2-a]pyrrol-7a(5H)-yl)methoxy)-20,22,25-trioxa-1,3,5,9-tetraazapentacyclo[21.4.1.1~6,10~.0~2,7~.0~11,16~]nonacosa-2,4,6,8,10(29),11,13,15-octaen-21-one], the IC50 in assay [1] (TR-FRET binding) came to 12 nM; in the assay with AsPC-1 cells (first value of cell) it was 1950 nM; in assay [2] (setting [4]) it was 200 nM.
Consider `O=C1OCCCc2c(Cl)cc3[nH]ncc3c2-c2ncc3c(nc(OC[C@@]45CCCN4C[C@H](F)C5)nc3c2F)N2CCC[C@]3(C2)C[C@H](C3)O1` [Example 323, (1R,3S)-11-chloro-33-fluoro-25-(((2R,7aS)-2-fluorotetrahydro-1H-pyrrolo[1,2-a]pyrrol-7a(5H)-yl)methoxy)-4,6-dioxa-14,15,20,24,26,28-hexaazaheptacyclo[26.3.1.1~1,3~.1~19,23~.0~10,18~.0~13,17~.0~22,27~]tetratriaconta-10,12,15,17,19(33),20,22,24,26-nonaen-5-one], for which the IC50 worked out at 318 nM in the assay on AsPC-1 cells (first value of cell) and 30.5 nM in assay [2] (setting [4]).
Consider `O=C1OCCc2c(Cl)cc3[nH]ncc3c2-c2ncc3c(nc(OC[C@@]45CCCN4C[C@H](F)C5)nc3c2F)N2CCC[C@]3(C2)C[C@H](C3)O1` [Example 333, (1R,3S)-10-chloro-32-fluoro-24-(((2R,7aS)-2-fluorotetrahydro-1H-pyrrolo[1,2-a]pyrrol-7a(5H)-yl)methoxy)-4,6-dioxa-13,14,19,23,25,27-hexaazaheptacyclo[25.3.1.1~1,3~.1~18,22~.0~9,17~.0~12,16~.0~21,26~]tritriaconta-9,11,14,16,18(32),19,21,23,25-nonaen-5-one], for which the IC50 was 314 nM in assay [1] (TR-FRET binding) and 127 nM in assay [3] (setting [5]).
For `O[C@H]1C[C@@H]2CN(C1)c1nc(OC[C@@]34CCCN3C[C@H](F)C4)nc3c(F)c(ncc13)-c1c(c(Cl)cc3[nH]ncc13)CCCc1nc2no1` [Example 378, (18R,20S)-9-chloro-31-fluoro-25-(((2R,7aS)~2-fluorotetrahydro-1H-pyrrolo[1,2-α]pyrrol-7a(5H)-yl)methoxy)-15-oxa-5,6,16,22,24,26,30,33-octaazaheptacyclo[25.3.1.1~14,17~.1~18,22~.0~2,10~0~3,7~.0~23,28~]tritriaconta-1(31),2,4,7,9,14(33),16,23,25,27,29-undecaen-20-ol], the IC50 stood at 782 nM with AsPC-1 cells (first value of the cell) and 47.7 nM in assay [2] (setting [8]).
On to “(17R,18R)-9-chloro-31-fluoro-25-(((2R,7aS)-2-fluorotetrahydro-1H-pyrrolo[1,2-α]pyrrol-7a(5H)-yl)methoxy)-19,33-dioxa-5,6,15,22,24,26,30-heptaazaheptacyclo[25.3.1.1~13,16~.1~18,22~.0~2,10~.0~3,7~.0~23,28~]tritriaconta-1(31),2,4,7,9,13,15,23,25,27,29-undecaen-17-ol [Example 395]”, for which the results for the IC50 in assay [1] (setting [7]) and in assay [3] (setting [5]) were 1170 nM and 198 nM, respectively.
With “(185)-9-chloro-31-fluoro-25-(((2R,7a.S)-2-fluorotetrahydro-LH-pyrrolo[1,2-α]pyrrol-7a(5H)-yl)methoxy)-15-oxa-5,6,22,24,26,30,33-heptaazaheptacyclo[25.3.1.1~13,16~1~18,22~0~2,10~.0~3,7~.0~23,28~]tritriaconta-1(31),2,4,7,9,13,16(33),23,25,27,29-undecaene [Example 388]”, the IC50 in assay [1] (setting [6]) was found to be 13 nM; in assay [2] it was 264 nM; in assay [3] it was 5 nM.
